Source: patent publication US10695337B2, “Piperidin-4-yl azetidine derivatives as JAK1 inhibitors” (Incyte Corporation, priority 2010, dated 2020)

Biological target: human JAK1 (a.a. 837-1142)
Experiment: In vitro JAK kinase assay (HTRF, phosphorylation of a biotinylated peptide), JAK1
Type: biochemical
Conditions: measured at 1 mM ATP; JAK2 IC50 / JAK1 IC50
In short: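 N-terminally His-tagged catalytic domains, baculovirus-expressed in insect cells and purified, were used as enzyme. Reactions ran 1 hr at room temperature and were stopped with a mix of 45 mM EDTA, 300 nM SA-APC and 6 nM Eu-Py20. The HTRF signal was read after 40 min of antibody binding.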

| Structure (SMILES) | IC50 Ratio JAK2/JAK1 |
| --- | --- |
| N#CCC1(n2cc(-c3ncnc4[nH]ccc34)cn2)CN(C2CCN(C(=O)Nc3nccs3)CC2)C1 [Example 190, 4-{3-(cyanomethyl)-3-[4-(7H-pyrrolo[2,3-d]pyrimidin-4-yl)-1H-pyrazol-1-yl]azetidin-1-yl}-N-1,3-thiazol-2-ylpiperidine-1-carboxamide] | 2.1 |
| N#CCC1(n2cc(-c3ncnc4[nH]ccc34)cn2)CN(C2CCN(C(=O)Nc3nc4ccccc4s3)CC2)C1 [Example 193, N-1,3-benzothiazol-2-yl-4-{3-(cyanomethyl)-3-[4-(7H-pyrrolo[2,3-d]pyrimidin-4-yl)-1H-pyrazol-1-yl]azetidin-1-yl}piperidine-1-carboxamide] | 0.5 |
| Cn1c(NC(=O)N2CCC(N3CC(CC#N)(n4cc(-c5ncnc6[nH]ccc56)cn4)C3)CC2)nc2ccccc21 [Example 194, 4-{3-(cyanomethyl)-3-[4-(7H-pyrrolo[2,3-d]pyrimidin-4-yl)-1H-pyrazol-1-yl]azetidin-1-yl}-N-(1-methyl-1H-benzimidazol-2-yl)piperidine-1-carboxamide] | 2.2 |
| N#CCC1(n2cc(-c3ncnc4[nH]ccc34)cn2)CN(C2CCN(C(=O)Nc3nc(-c4ccc(Cl)cc4)cs3)CC2)C1 [Example 195, N-[4-(4-chlorophenyl)-1,3-thiazol-2-yl]-4-{3-(cyanomethyl)-3-[4-(7H-pyrrolo[2,3-d]pyrimidin-4-yl)-1H-pyrazol-1-yl]azetidin-1-yl}piperidine-1-carboxamide] | 3.2 |
| CCn1nccc1NC(=O)N1CCC(N2CC(CC#N)(n3cc(-c4ncnc5[nH]ccc45)cn3)C2)CC1 [Example 196, 4-{3-(cyanomethyl)-3-[4-(7H-pyrrolo[2,3-d]pyrimidin-4-yl)-1H-pyrazol-1-yl]azetidin-1-yl}-N-(1-ethyl-1H-pyrazol-5-yl)piperidine-1-carboxamide] | 9.9 |
| N#CCC1(n2cc(-c3ncnc4[nH]ccc34)cn2)CN(C2CCN(C(=O)Nc3ncccc3C(F)(F)F)CC2)C1 [Example 201, 4-{3-(cyanomethyl)-3-[4-(7H-pyrrolo[2,3-d]pyrimidin-4-yl)-1H-pyrazol-1-yl]azetidin-1-yl}-N-[3-(trifluoromethyl)pyridin-2-yl]piperidine-1-carboxamide] | 3.6 |
| COC(=O)c1ccccc1NC(=O)N1CCC(N2CC(CC#N)(n3cc(-c4ncnc5[nH]ccc45)cn3)C2)CC1 [Example 206, methyl 2-{[(4-{3-(cyanomethyl)-3-[4-(7H-pyrrolo[2,3-d]pyrimidin-4-yl)-1H-pyrazol-1-yl]azetidin-1-yl}piperidin-1-yl)carbonyl]amino}benzoate] | 1.6 |
| CN(C)c1ccc(CN2CCC(N3CC(CC#N)(n4cc(-c5ncnc6[nH]ccc56)cn4)C3)CC2)c(F)c1C#N [Example 209, 3-[(4-{3-(Cyanomethyl)-3-[4-(7H-pyrrolo[2,3-d]pyrimidin-4-yl)-1H-pyrazol-1-yl]azetidin-1-yl}piperidin-1-yl)methyl]-6-(dimethylamino)-2-fluorobenzonitrile] | 19.0 |
| N#CCC1(n2cc(-c3ncnc4[nH]ccc34)cn2)CN(C2CCN(Cc3cc(Cl)cc(Cl)c3)CC2)C1 [Example 210, {1-[1-(3,5-dichlorobenzyl)piperidin-4-yl]-3-[4-(7H-pyrrolo[2,3-d]pyrimidin-4-yl)-1H-pyrazol-1-yl]azetidin-3-yl}acetonitrile] | 4.3 |
| N#CCC1(n2cc(-c3ncnc4[nH]ccc34)cn2)CN(C2CCN(Cc3cc(C(F)(F)F)ccc3Cl)CC2)C1 [Example 211, {1-{1-[2-chloro-5-(trifluoromethyl)benzyl]piperidin-4-yl}-3-[4-(7H-pyrrolo[2,3-d]pyrimidin-4-yl)-1H-pyrazol-1-yl]azetidin-3-yl}acetonitrile] | 5.0 |
| N#CCC1(n2cc(-c3ncnc4[nH]ccc34)cn2)CN(C2CCN(Cc3cccc(C(F)(F)F)c3F)CC2)C1 [Example 212, {1-{1-[2-fluoro-3-(trifluoromethyl)benzyl]piperidin-4-yl}-3-[4-(7H-pyrrolo[2,3-d]pyrimidin-4-yl)-1H-pyrazol-1-yl]azetidin-3-yl}acetonitrile] | 7.8 |
| N#CCC1(n2cc(-c3ncnc4[nH]ccc34)cn2)CN(C2CCN(Cc3c(F)cccc3C(F)(F)F)CC2)C1 [Example 213, {1-{1-[2-fluoro-6-(trifluoromethyl)benzyl]piperidin-4-yl}-3-[4-(7H-pyrrolo[2,3-d]pyrimidin-4-yl)-1H-pyrazol-1-yl]azetidin-3-yl}acetonitrile] | 9.7 |

Further lines, results first:

| IC50 Ratio JAK2/JAK1 | Structure (SMILES) |
| --- | --- |
| 5.5 | COc1ccc(OC)c(NC(=O)N2CCC(N3CC(CC#N)(n4cc(-c5ncnc6[nH]ccc56)cn4)C3)CC2)c1 [Example 186, 4-{3-(cyanomethyl)-3-[4-(7H-pyrrolo[2,3-d]pyrimidin-4-yl)-1H-pyrazol-1-yl]azetidin-1-yl}-N-(2,5-dimethoxyphenyl)piperidine-1-carboxamide] |
| 3.5 | Cc1ccc(NC(=O)N2CCC(N3CC(CC#N)(n4cc(-c5ncnc6[nH]ccc56)cn4)C3)CC2)c(C)n1 [Example 189, 4-{3-(cyanomethyl)-3-[4-(7H-pyrrolo[2,3-d]pyrimidin-4-yl)-1H-pyrazol-1-yl]azetidin-1-yl}-N-(2,6-dimethylpyridin-3-yl)piperidine-1-carboxamide] |
| 1.4 | Cc1csc(NC(=O)N2CCC(N3CC(CC#N)(n4cc(-c5ncnc6[nH]ccc56)cn4)C3)CC2)n1 [Example 191, 4-{3-(cyanomethyl)-3-[4-(7H-pyrrolo[2,3-d]pyrimidin-4-yl)-1H-pyrazol-1-yl]azetidin-1-yl}-N-(4-methyl-1,3-thiazol-2-yl)piperidine-1-carboxamide] |
| 3.0 | Cc1nc(NC(=O)N2CCC(N3CC(CC#N)(n4cc(-c5ncnc6[nH]ccc56)cn4)C3)CC2)sc1C [Example 192, 4-{3-(cyanomethyl)-3-[4-(7H-pyrrolo[2,3-d]pyrimidin-4-yl)-1H-pyrazol-1-yl]azetidin-1-yl}-N-(4,5-dimethyl-1,3-thiazol-2-yl)piperidine-1-carboxamide] |
| 3.2 | Cc1cc(NC(=O)N2CCC(N3CC(CC#N)(n4cc(-c5ncnc6[nH]ccc56)cn4)C3)CC2)n(C)n1 [Example 197, 4-{3-(cyanomethyl)-3-[4-(7H-pyrrolo[2,3-d]pyrimidin-4-yl)-1H-pyrazol-1-yl]azetidin-1-yl}-N-(1,3-dimethyl-1H-pyrazol-5-yl)piperidine-1-carboxamide] |
| 4.4 | Cc1ncccc1NC(=O)N1CCC(N2CC(CC#N)(n3cc(-c4ncnc5[nH]ccc45)cn3)C2)CC1 [Example 198, 4-{3-(cyanomethyl)-3-[4-(7H-pyrrolo[2,3-d]pyrimidin-4-yl)-1H-pyrazol-1-yl]azetidin-1-yl}-N-(2-methylpyridin-3-yl)piperidine-1-carboxamide] |
| 10.0 | Cc1nc(F)ccc1NC(=O)N1CCC(N2CC(CC#N)(n3cc(-c4ncnc5[nH]ccc45)cn3)C2)CC1 [Example 199, 4-{3-(cyanomethyl)-3-[4-(7H-pyrrolo[2,3-d]pyrimidin-4-yl)-1H-pyrazol-1-yl]azetidin-1-yl}-N-(6-fluoro-2-methylpyridin-3-yl)piperidine-1-carboxamide] |
| 6.7 | Cc1ccc(NC(=O)N2CCC(N3CC(CC#N)(n4cc(-c5ncnc6[nH]ccc56)cn4)C3)CC2)c(F)n1 [Example 200, 4-{3-(cyanomethyl)-3-[4-(7H-pyrrolo[2,3-d]pyrimidin-4-yl)-1H-pyrazol-1-yl]azetidin-1-yl}-N-(2-fluoro-6-methylpyridin-3-yl)piperidine-1-carboxamide] |
| 6.4 | N#CCC1(n2cc(-c3ncnc4[nH]ccc34)cn2)CN(C2CCN(C(=O)Nc3ncccc3F)CC2)C1 [Example 202, 4-{3-(cyanomethyl)-3-[4-(7H-pyrrolo[2,3-d]pyrimidin-4-yl)-1H-pyrazol-1-yl]azetidin-1-yl}-N-(3-fluoropyridin-2-yl)piperidine-1-carboxamide] |
| 8.6 | N#CCC1(n2cc(-c3ncnc4[nH]ccc34)cn2)CN(C2CCN(C(=O)Nc3ncc(F)cc3F)CC2)C1 [Example 203, 4-{3-(cyanomethyl)-3-[4-(7H-pyrrolo[2,3-d]pyrimidin-4-yl)-1H-pyrazol-1-yl]azetidin-1-yl}-N-(3,5-difluoropyridin-2-yl)piperidine-1-carboxamide] |
| 4.0 | COc1ncccc1NC(=O)N1CCC(N2CC(CC#N)(n3cc(-c4ncnc5[nH]ccc45)cn3)C2)CC1 [Example 204, 4-{3-(cyanomethyl)-3-[4-(7H-pyrrolo[2,3-d]pyrimidin-4-yl)-1H-pyrazol-1-yl]azetidin-1-yl}-N-(2-methoxypyridin-3-yl)piperidine-1-carboxamide] |
| 4.4 | Cc1nc(C(F)(F)F)ccc1NC(=O)N1CCC(N2CC(CC#N)(n3cc(-c4ncnc5[nH]ccc45)cn3)C2)CC1 [Example 205, 4-{3-(cyanomethyl)-3-[4-(7H-pyrrolo[2,3-d]pyrimidin-4-yl)-1H-pyrazol-1-yl]azetidin-1-yl}-N-[2-methyl-6-(trifluoromethyl)pyridin-3-yl]piperidine-1-carboxamide] |
| 2.5 | COC(=O)c1cc(F)ccc1NC(=O)N1CCC(N2CC(CC#N)(n3cc(-c4ncnc5[nH]ccc45)cn3)C2)CC1 [Example 207, methyl 2-{[(4-{3-(cyanomethyl)-3-[4-(7H-pyrrolo[2,3-d]pyrimidin-4-yl)-1H-pyrazol-1-yl]azetidin-1-yl}piperidin-1-yl)carbonyl]amino}-5-fluorobenzoate] |
| 4.8 | COC(=O)c1ccc(NC(=O)N2CCC(N3CC(CC#N)(n4cc(-c5ncnc6[nH]ccc56)cn4)C3)CC2)c(F)c1 [Example 208, methyl 4-{[(4-{3-(cyanomethyl)-3-[4-(7H-pyrrolo[2,3-d]pyrimidin-4-yl)-1H-pyrazol-1-yl]azetidin-1-yl}piperidin-1-yl)carbonyl]amino}-3-fluorobenzoate] |
